{
  "source": "patent US20230407243A1",
  "about": "“GENETIC PLATFORM TO INVESTIGATE THE FUNCTIONS OF BACTERIAL DRUG EFFLUX PUMPS” (priority 2022, published 2023)",
  "format_in_all_cases": "cell-based, Escherichia coli",
  "key": {"[1]": {"tested_on": "EKO-35 araC::mdtEF Pore", "assay": "MIC susceptibility profiling, porinated efflux platform", "procedure,_shortened": "(§1)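 E. coli strains carrying a genomically integrated constitutive fhuA ΔC/Δ4L pore were grown 18 h in LB at 37 °C, then diluted 1/2000 in MHB II from OD600 ~1.0. Compounds were tested in duplicate, 2-fold serial titration, for 18 h at 37 °C with shaking. MIC came from OD600 with the pre-incubation background subtracted.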"}, "[2]": {"tested_on": "EKO-35 araC::acrB Pore", "assay": "MIC susceptibility profiling, porinated efflux platform", "conditions": "EKO-35 araC::acr-B Pore compared to EKO-35-Pore", "procedure,_shortened": "as §1"}, "[3]": {"tested_on": "EKO-35 araC::mdtBC Pore", "assay": "MIC susceptibility profiling, porinated efflux platform", "procedure,_shortened": "as §1"}, "[4]": {"tested_on": "EKO-35 araC::mexCD (MexCD from P. aeruginosa)", "assay": "MIC susceptibility profiling, efflux platform", "procedure,_shortened": "(§2)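 LB o/n 37 °C → PBS pH 7.4, OD600 ~1.0 → 1/2000 in MHB II; 2-fold cmpd series, duplicate, DMSO ctrl; 18 h 37 °C, 900 rpm; OD600 post minus pre.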"}, "[5]": {"tested_on": "EKO-35 araC::mdtEF", "assay": "MIC susceptibility profiling, efflux platform", "procedure,_shortened": "as §2"}, "[6]": {"tested_on": "EKO-35 araC::acrB", "assay": "MIC susceptibility profiling, efflux platform", "procedure,_shortened": "as §2"}, "[7]": {"tested_on": "EKO-35 araC::emrKY", "assay": "MIC susceptibility profiling, efflux platform", "procedure,_shortened": "as §2"}, "[8]": {"tested_on": "EKO-35 araC::acrD", "assay": "MIC susceptibility profiling, efflux platform", "procedure,_shortened": "as §2"}, "[9]": {"tested_on": "EKO-35 araC::mdtBC", "assay": "MIC susceptibility profiling, efflux platform", "procedure,_shortened": "as §2"}, "[10]": {"tested_on": "EKO-35 araC::acrBD408A", "assay": "MIC susceptibility profiling, efflux platform", "procedure,_shortened": "as §2"}, "[11]": {"tested_on": "EKO-35 araC::acrEF", "assay": "MIC susceptibility profiling, efflux platform", "procedure,_shortened": "as §2"}, "[12]": {"tested_on": "EKO-35 araC::emrAB", "assay": "MIC susceptibility profiling, efflux platform", "procedure,_shortened": "as §2"}, "[13]": {"tested_on": "EKO-35 araC::macAB", "assay": "MIC susceptibility profiling, efflux platform", "procedure,_shortened": "as §2"}, "[14]": {"tested_on": "wild-type (WT) K-12-Pore", "assay": "microbe, parasite or virus in culture", "conditions": "Escherichia coli, technical duplicate", "procedure,_shortened": "as §1"}, "[15]": {"tested_on": "ΔtolC-Pore", "assay": "microbe, parasite or virus in culture", "procedure,_shortened": "as §1"}, "[16]": {"tested_on": "EKO-35-Pore", "assay": "MIC susceptibility profiling, porinated strain", "conditions": "for MIC: Escherichia coli", "procedure,_shortened": "as §1"}, "[17]": {"tested_on": "E. coli ΔtolC", "assay": "microbe, parasite or virus in culture", "procedure,_shortened": "as §2"}, "[18]": {"tested_on": "wild-type E. coli K-12 str. BW25113", "assay": "microbe, parasite or virus in culture", "conditions": "Escherichia coli, BW25113, technical duplicate", "procedure,_shortened": "as §2"}, "[19]": {"tested_on": "E. coli EKO-35", "assay": "microbe, parasite or virus in culture", "conditions": "for MIC: Escherichia coli, EKO35, technical duplicate", "procedure,_shortened": "as §2"}},
  "note": "Where two headings read alike, the source gives them in different places.",
  "data": [
    {"smiles": "O=C(N[C@H](CO)[C@H](O)c1ccc([N+](=O)[O-])cc1)C(Cl)Cl", "note": "[chloramphenicol]", "values": [
      {"measurement": "Fold changes of MICs", "setting": "[1]; EKO-35 araC::mdtEF Pore compared to EKO-35-Pore", "result": 1, "unit": "fold"},
      {"measurement": "MIC", "setting": "[1]; Escherichia coli, Table 14A, porinated, technical duplicate, read-out: Minimum inhibitory concentration, EKO-35 araC::mdtEF Pore", "result": 0.781, "unit": "µg/mL"},
      {"measurement": "Fold changes of MICs", "setting": "[2]", "result": 4, "unit": "fold"},
      {"measurement": "Fold changes of MICs", "setting": "[3]; EKO-35 araC::mdtBC Pore compared to EKO-35-Pore", "result": 1, "unit": "fold"},
      {"measurement": "MIC", "setting": "[3]; Escherichia coli, EKO-35 araC::mdtBC Pore, technical duplicate, read-out: Minimum inhibitory concentration", "result": 0.781, "unit": "µg/mL"},
      {"measurement": "Fold change of MICs", "setting": "[4]; EKO-35 araC::mexCD compared to EKO-35", "result": 1, "unit": "fold"},
      {"measurement": "MIC", "setting": "[4]; Table 13B, non-porinated, technical duplicate, read-out: Minimum Inhibitory Concentration, EKO-35 araC::mexCD", "result": 0.781, "unit": "µg/mL"},
      {"measurement": "Fold change of MICs", "setting": "[5]; EKO-35 araC::mdtEF compared to EKO-35", "result": 1, "unit": "fold"},
      {"measurement": "MIC", "setting": "[5]; Escherichia coli, Table 13A, non-porinated, technical duplicate, read-out: Minimum Inhibitory Concentration, EKO-35 araC::mdtEF", "result": 0.781, "unit": "µg/mL"},
      {"measurement": "Fold change of MICs", "setting": "[6]; EKO-35 araC::acrB compared to EKO-35", "result": 8, "unit": "fold"},
      {"measurement": "MIC", "setting": "[6]; Escherichia coli, Table 13A, non-porinated, technical duplicate, read-out: Minimum Inhibitory Concentration, EKO-35 araC::acrB", "result": 6.25, "unit": "µg/mL"},
      {"measurement": "Fold change of MICs", "setting": "[7]; EKO-35 araC::emrKY compared to EKO-35", "result": 1, "unit": "fold"},
      {"measurement": "MIC", "setting": "[7]; Escherichia coli, Table 13B, non-porinated, technical duplicate, read-out: Minimum Inhibitory Concentration, EKO-35 araC::emrKY", "result": 0.391, "unit": "µg/mL"},
      {"measurement": "Fold change of MICs", "setting": "[8]; EKO-35 araC::acrD compared to EKO-35", "result": 2, "unit": "fold"},
      {"measurement": "MIC", "setting": "[8]; Escherichia coli, Table 13A, non-porinated, technical duplicate, read-out: Minimum Inhibitory Concentration, EKO-35 araC::acrD", "result": 1.56, "unit": "µg/mL"},
      {"measurement": "Fold change of MICs", "setting": "[9]; EKO-35 araC::mdtBC compared to EKO-35", "result": 1, "unit": "fold"},
      {"measurement": "MIC", "setting": "[9]; Escherichia coli, Table 13B, non-porinated, technical duplicate, read-out: Minimum Inhibitory Concentration, EKO-35 araC::mdtBC", "result": 0.781, "unit": "µg/mL"},
      {"measurement": "Fold change of MICs", "setting": "[10]; EKO-35 araC::acrBD408A compared to EKO-35", "result": 1, "unit": "fold"},
      {"measurement": "MIC", "setting": "[10]; Escherichia coli, Table 13B, non-porinated, technical duplicate, read-out: Minimum Inhibitory Concentration, EKO-35 araC::acrBD408A", "result": 0.781, "unit": "µg/mL"},
      {"measurement": "Fold change of MICs", "setting": "[11]; EKO-35 araC::acrEF compared to EKO-35", "result": 2, "unit": "fold"},
      {"measurement": "MIC", "setting": "[11]; Escherichia coli, Table 13A, non-porinated, technical duplicate, read-out: Minimum Inhibitory Concentration, EKO-35 araC::acrEF", "result": 1.56, "unit": "µg/mL"},
      {"measurement": "Fold change of MICs", "setting": "[12]; EKO-35 araC::emrAB compared to EKO-35", "result": 1, "unit": "fold"},
      {"measurement": "MIC", "setting": "[12]; Escherichia coli, Table 13B, non-porinated, technical duplicate, read-out: Minimum Inhibitory Concentration, EKO-35 araC::emrAB", "result": 0.781, "unit": "µg/mL"},
      {"measurement": "Fold change of MICs", "setting": "[13]; EKO-35 araC::macAB compared to EKO-35", "result": 1, "unit": "fold"},
      {"measurement": "MIC", "setting": "[13]; Escherichia coli, Table 13B, non-porinated, technical duplicate, read-out: Minimum Inhibitory Concentration, EKO-35 araC::macAB", "result": 0.781, "unit": "µg/mL"},
      {"measurement": "MIC", "setting": "[14]; Table 10, with pore, read-out: Minimum inhibitory concentration (MIC), Pore K-12", "result": 3.12, "unit": "µg/mL"},
      {"measurement": "MIC", "setting": "[14]; Table 14A, porinated, read-out: Minimum inhibitory concentration, K-12 (WT)-Pore", "result": 3.12, "unit": "µg/mL"},
      {"measurement": "MIC", "setting": "[15]; Escherichia coli, 18 h, read-out: Minimum inhibitory concentration, ΔtolC-Pore", "result": 0.781, "unit": "µg/mL"},
      {"measurement": "Minimum inhibitory concentration (MIC), Pore ΔtolC", "setting": "[15]; Table 10, with pore, technical duplicate", "result": 0.781, "unit": "µg/mL"},
      {"measurement": "Fold changes of MICs", "setting": "[16]; EKO-35-Pore compared to EKO-35-Pore (reference)", "result": 1, "unit": "fold"},
      {"measurement": "MIC", "setting": "[16]; read-out: Minimum inhibitory concentration (MIC), Pore EKO-35", "result": 0.781, "unit": "µg/mL"},
      {"measurement": "MIC", "setting": "[16]; Table 14A, porinated, technical duplicate, read-out: Minimum inhibitory concentration, EKO-35-Pore", "result": 0.781, "unit": "µg/mL"},
      {"measurement": "MIC", "setting": "[17]; Escherichia coli, 18 h, read-out: Minimum Inhibitory Concentration, ΔtolC", "result": 1.56, "unit": "µg/mL"},
      {"measurement": "Minimum inhibitory concentration (MIC), ΔtolC", "setting": "[17]; Table 10, without pore, technical duplicate", "result": 1.563, "unit": "µg/mL"},
      {"measurement": "MIC", "setting": "[18]; Table 10, without pore, read-out: Minimum inhibitory concentration (MIC), K-12", "result": 6.5, "unit": "µg/mL"},
      {"measurement": "MIC", "setting": "[18]; Table 13A, non-porinated, read-out: Minimum Inhibitory Concentration, K-12", "result": 6.25, "unit": "µg/mL"},
      {"measurement": "Fold change of MICs", "setting": "[19]; EKO-35 compared to EKO-35 (reference)", "result": 1, "unit": "fold"},
      {"measurement": "MIC", "setting": "[19]; Table 10, without pore, read-out: Minimum inhibitory concentration (MIC), EKO-35", "result": 0.781, "unit": "µg/mL"},
      {"measurement": "MIC", "setting": "[19]; Table 13A, non-porinated, read-out: Minimum Inhibitory Concentration, EKO-35", "result": 0.781, "unit": "µg/mL"}
    ]}
  ]
}
